Experimental data reported in patent US7485642B2, “Method for treating septic shock” (Orion Corporation, priority 2000, dated 2009).

System: porcine model of endotoxin shock
Assay: porcine model of endotoxin shock
Format: in vivo, landrace pigs
Description: 20 kg landrace pigs were anesthetized and catheterized. After baseline measurements 8 pigs received 200 μg/kg levosimendan as a 10 minute bolus followed by an infusion of 200 μg/kg/hour. 9 animals served as controls.
In the second phase of the experiment the animals were given an infusion of endotoxin (from E. Coli bacteria) 30 minutes after the start of the bolus dose of levosimendan. The endotoxin infusion was maintained for 3 hours and the levosimendan infusion was maintained throughout the experiment until 5 hours after onset of endoxemia. Comparison between the two groups was made with ANOVA.
The changes in the cardiac index, splanchnic (portal) blood flow index, portal venous blood lactate and pulmonary vascular resistance are shown in FIGS. 1-4. In the Figures, (−0.5 h) means the start of levosimendan bolus and (0 h) the start of endotoxin infusion.

[1] = porcine model of endotoxin shock, 200 μg/kg 10 minute bolus followed by infusion of 200 μg/kg/hour, E. Coli endotoxin infusion 3 hours

CC1CC(=O)NN=C1c1ccc(NN=C(C#N)C#N)cc1 (single isomer, unassigned; (-)) [levosimendan, (−)-[[4-(1,4,5,6-tetrahydro-4-methyl-6-oxo-3-pyridazinyl)phenyl]hydrazono]propanedinitrile]
survival (8 levosimendan treated pigs, until 5 hours after onset of endotoxemia): All levosimendan treated animals survived
endotoxin-induced decreases in cardiac output [1]: counteracts
endotoxin-induced splanchnic hyperperfusion [1]: counteracts endotoxin-induced splanchnic hyperperfusion
endotoxin-induced circulatory disorders (cardiac index, portal blood flow index, portal venous blood lactate, pulmonary vascular resistance; FIGS. 1-4) (vs control, ANOVA, until 5 hours after onset of endotoxemia): can significantly counteract endotoxin-induced circulatory disorders
